Assay results as given in patent publication US10308644B2, “Heterocyclic compounds as immunomodulators” (Incyte Corporation, priority 2016, dated 2019).

The compounds below were run against PD-1/PD-L1 (Homo sapiens (Human), UniProt Q9NZQ7) (assay: PD-1/PD-L1 Homogeneous Time-Resolved Fluorescence (HTRF) Binding Assay). Details: recombinant human PD-1 (3 nM) and PD-L1 (10 nM), 25° C., PBS pH 7.4.
Method in brief: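 Fc-tagged human PD-1 (25-167, 3 nM) and His-tagged PD-L1 (19-238, 10 nM) preincubated with inhibitor 40 min in PBS pH 7.4, 0.05% Tween-20, 0.1% BSA, 1% DMSO, 25 °C. Binding detected by HTRF (Eu anti-IgG/APC anti-His, 665/620 nm) after 60 min; IC50 from percent control activity.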

Sequence of PD-1/PD-L1 (Q9NZQ7 19-238): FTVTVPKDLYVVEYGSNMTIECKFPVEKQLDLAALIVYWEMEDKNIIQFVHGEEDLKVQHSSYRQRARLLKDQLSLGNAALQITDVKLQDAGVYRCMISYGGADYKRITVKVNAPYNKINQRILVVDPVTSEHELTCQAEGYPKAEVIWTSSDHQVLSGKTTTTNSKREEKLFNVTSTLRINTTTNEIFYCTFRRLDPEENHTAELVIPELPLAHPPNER

Row | Structure (SMILES) | IC50
1 | Cc1c(-c2nc3cc(CN4CC[C@@](C)(C(=O)O)C4)cc(C#N)c3o2)cccc1-c1cccc(NC(=O)c2nc3c(n2C)CCN(C[C@@H](C)O)C3)c1Cl [Example 157, (R)-1-((2-(2′-chloro-3′-(5-((R)-2-hydroxypropyl)-1-methyl-4,5,6,7-tetrahydro-1H-imidazo[4,5-c]pyridine-2-carboxamido)-2-methylbiphenyl-3-yl)-7-cyanobenzo[d]oxazol-5-yl)methyl)-3-methylpyrrolidine-3-carboxylic acid] | ≤ 10 nM
2 | Cc1c(Nc2nccc3cc(CN4CC[C@H](O)C4)cnc23)cccc1-c1cccc(-c2nc3cc(CN4CC(C(=O)O)C4)cc(Cl)c3o2)c1C [Example 23, (S)-1-((7-chloro-2-(3′-(3-((3-hydroxypyrrolidin-1-yl)methyl)-1,7-naphthyridin-8-ylamino)-2,2′-dimethylbiphenyl-3-yl)benzo[d]oxazol-5-yl)methyl)azetidine-3-carboxylic acid] | ≤ 10 nM
3 | Cc1c(-c2nc3cc(CN4CC[C@@H](C(=O)O)C4)cc(C#N)c3o2)cccc1-c1cccc(-c2nc3c(s2)CN(C(=O)CN2CC[C@@](C)(O)C2)C3)c1C [Example 116, (R)-1-((7-cyano-2-(3′-(5-(2-((R)-3-hydroxy-3-methylpyrrolidin-1-yl)acetyl)-5,6-dihydro-4H-pyrrolo[3,4-d]thiazol-2-yl)-2,2′-dimethylbiphenyl-3-yl)benzo[d]oxazol-5-yl)methyl)pyrrolidine-3-carboxylic acid] | ≤ 10 nM
4 | Cc1c(Nc2nccc3cc(CN[C@H](C)CO)cnc23)cccc1-c1cccc(-c2nc3cc(CN4CC[C@@H](C(=O)O)C4)cc(C#N)c3o2)c1C [Example 258, (R)-1-((7-cyano-2-(3′-(3-(((R)-1-hydroxypropan-2-ylamino)methyl)-1,7-naphthyridin-8-ylamino)-2,2′-dimethylbiphenyl-3-yl)benzo[d]oxazol-5-yl)methyl)pyrrolidine-3-carboxylic acid] | ≤ 10 nM
5 | Cc1c(Nc2ncnc3cccnc23)cccc1-c1cccc(-c2nc3cc(CN4CC[C@@H](C(=O)O)C4)cc(C#N)c3o2)c1C [Example 13, (R)-1-((7-cyano-2-(2,2′-dimethyl-3′-(pyrido[3,2-d]pyrimidin-4-ylamino)biphenyl-3-yl)benzo[d]oxazol-5-yl)methyl)pyrrolidine-3-carboxylic acid] | ≤ 10 nM
6 | CCN1CCc2cn(-c3cccc(-c4cccc(-c5nc6cc(CN7CC[C@@H](C(=O)O)C7)cc(C#N)c6o5)c4C)c3Cl)nc2C1 [Example 58, (R)-1-((2-(2′-chloro-3′-(6-ethyl-4,5,6,7-tetrahydro-2H-pyrazolo[3,4-c]pyridin-2-yl)-2-methylbiphenyl-3-yl)-7-cyanobenzo[d]oxazol-5-yl)methyl)pyrrolidine-3-carboxylic acid] | ≤ 10 nM
7 | CCN1CCc2c(nc(C(=O)Nc3cccc(-c4cccc(-c5nc6cc(CN7CC[C@@](C)(C(=O)O)C7)cc(C#N)c6o5)c4C)c3Cl)n2C)C1 [Example 95, (R)-1-((2-(2′-chloro-3′-(5-ethyl-1-methyl-4,5,6,7-tetrahydro-1H-imidazo[4,5-c]pyridine-2-carboxamido)-2-methylbiphenyl-3-yl)-7-cyanobenzo[d]oxazol-5-yl)methyl)-3-methylpyrrolidine-3-carboxylic acid] | ≤ 10 nM
8 | Cc1c(-c2nc3cc(CN4CCCC4)cc(C#N)c3o2)cccc1-c1cccc(NC(=O)c2nc3c(n2C)CCN(C[C@H]2CC[C@H](C(=O)O)CC2)C3)c1Cl [Example 271, trans-4-((2-(2-chloro-3′-(7-cyano-5-(pyrrolidin-1-ylmethyl)benzo[d]oxazol-2-yl)-2′-methylbiphenyl-3-ylcarbamoyl)-1-methyl-6,7-dihydro-1H-imidazo[4,5-c]pyridin-5(4H)-yl)methyl)cyclohexanecarboxylic acid] | ≤ 10 nM
9 | CCN1CCc2c(nc(C(=O)Nc3cccc(-c4cccc(-c5nc6cc(CN7CC[C@H](C(=O)O)C7)cc(C#N)c6o5)c4C)c3Cl)n2C)C1 [Example 142, (S)-1-((2-(2′-chloro-3′-(5-ethyl-1-methyl-4,5,6,7-tetrahydro-1H-imidazo[4,5-c]pyridine-2-carboxamido)-2-methyl-[1,1′-biphenyl]-3-yl)-7-cyanobenzo[d]oxazol-5-yl)methyl)pyrrolidine-3-carboxylic acid] | ≤ 10 nM
10 | Cc1c(-c2nc3cc(CN4CC[C@@H](O)C4)cc(C#N)c3o2)cccc1-c1cccc(NC(=O)c2nc3c(n2C)CCN(CC2CCC(C)(C(=O)O)CC2)C3)c1Cl (single isomer, unassigned; peak 1) [Example 268] | ≤ 10 nM
11 | Cc1c(-c2nc3cc(CN4CC[C@@H](O)C4)cc(C#N)c3o2)cccc1-c1cccc(NC(=O)c2nc3c(n2C)CCN(C2CCCC(C(=O)O)CC2)C3)c1Cl (stereo partly drawn) [Example 264, 4-(2-(2-chloro-3′-(7-cyano-5-(((R)-3-hydroxypyrrolidin-1-yl)methyl)benzo[d]oxazol-2-yl)-2′-methylbiphenyl-3-ylcarbamoyl)-1-methyl-6,7-dihydro-1H-imidazo[4,5-c]pyridin-5(4H)-yl)cycloheptane carboxylic acid] | ≤ 10 nM
12 | Cc1c(-c2nc3cc(CN4CC[C@@H](C(=O)O)C4)cc(C#N)c3o2)cccc1-c1cccc(-c2nc3c(s2)CN(C(C)C)CC3)c1C [Example 63, (R)-1-((7-cyano-2-(3′-(5-isopropyl-4,5,6,7-tetrahydrothiazolo[5,4-c]pyridin-2-yl)-2,2′-dimethyl-[1,1′-biphenyl]-3-yl)benzo[d]oxazol-5-yl)methyl)pyrrolidine-3-carboxylic acid] | ≤ 10 nM
13 | Cc1c(-c2nc3cc(CN4CC[C@H](C(=O)O)C4)cc(C#N)c3o2)cccc1-c1cccc(-c2nc3c(s2)CN(CCO)CC3)c1C [Example 67, (S)-1-((7-cyano-2-(3′-(5-(2-hydroxyethyl)-4,5,6,7-tetrahydrothiazolo[5,4-c]pyridin-2-yl)-2,2′-dimethyl-[1,1′-biphenyl]-3-yl)benzo[d]oxazol-5-yl)methyl)pyrrolidine-3-carboxylic acid] | ≤ 10 nM
14 | Cc1c(-c2nc3cc(CN4CC[C@@H](O)C4)cc(C#N)c3o2)cccc1-c1cccc(NC(=O)c2nc3c(n2C)CCN(C[C@H]2CC[C@@H](C(=O)O)CC2)C3)c1Cl [Example 266, cis-4-((2-(2-chloro-3′-(7-cyano-5-(((R)-3-hydroxypyrrolidin-1-yl)methyl)benzo[d]oxazol-2-yl)-2′-methylbiphenyl-3-ylcarbamoyl)-1-methyl-6,7-dihydro-1H-imidazo[4,5-c]pyridin-5(4H)-yl)methyl)cyclohexane carboxylic acid] | ≤ 10 nM
15 | Cc1c(-c2nc3cc(CN[C@@H](C)C(=O)O)cc(C#N)c3o2)cccc1-c1cccc(NC(=O)c2nc3c(n2C)CCN(C)C3)c1Cl [Example 90, (S)-2-((2-(2′-chloro-3′-(1,5-dimethyl-4,5,6,7-tetrahydro-1H-imidazo[4,5-c]pyridine-2-carboxamido)-2-methylbiphenyl-3-yl)-7-cyanobenzo[d]oxazol-5-yl)methylamino)propanoic acid] | ≤ 10 nM
16 | Cc1c(Nc2nccc3cc(CN4CC[C@H](O)C4)cnc23)cccc1-c1cccc(-c2nc3cc(CN4CC[C@@H](C(=O)O)C4)cc(Cl)c3o2)c1C [Example 16, (R)-1-((7-chloro-2-(3′-(3-(((S)-3-hydroxypyrrolidin-1-yl)methyl)-1,7-naphthyridin-8-ylamino)-2,2′-dimethylbiphenyl-3-yl)benzo[d]oxazol-5-yl)methyl)pyrrolidine-3-carboxylic acid] | ≤ 10 nM
17 | Cc1c(-c2nc3cc(CN4CC[C@@H](O)C4)cc(Cl)c3o2)cccc1-c1cccc(NC(=O)c2cc(CN3CC[C@@H](C(=O)O)C3)cn(C)c2=O)c1Cl [Example 151, (R)-1-((5-(2-chloro-3′-(7-chloro-5-(((R)-3-hydroxypyrrolidin-1-yl)methyl)benzo[d]oxazol-2-yl)-2′-methylbiphenyl-3-ylcarbamoyl)-1-methyl-6-oxo-1,6-dihydropyridin-3-yl)methyl)pyrrolidine-3-carboxylic acid] | ≤ 10 nM
18 | Cc1c(Nc2nccc3cc(CN4CC[C@@H](O)C4)cnc23)cccc1-c1cccc(-c2nc3cc(CN[C@H]4CCC[C@@H]4C(=O)O)cc(C#N)c3o2)c1C [Example 179, (1S,2S)-2-((7-cyano-2-(3′-(3-(((R)-3-hydroxypyrrolidin-1-yl)methyl)-1,7-naphthyridin-8-ylamino)-2,2′-dimethylbiphenyl-3-yl)benzo[d]oxazol-5-yl)methylamino)cyclopentanecarboxylic acid] | ≤ 10 nM
19 | Cc1c(Nc2nccc3cc(CN4CC[C@@H](O)C4)cnc23)cccc1-c1cccc(-c2nc3cc(CN[C@H]4C[C@H](C(=O)O)C4)cc(C#N)c3o2)c1C [Example 181, trans-3-((7-cyano-2-(3′-(3-(((R)-3-hydroxypyrrolidin-1-yl)methyl)-1,7-naphthyridin-8-ylamino)-2,2′-dimethylbiphenyl-3-yl)benzo [d]oxazol-5-yl)methylamino)cyclobutane carboxylic acid] | ≤ 10 nM
20 | CC(=O)NCCNCc1cc(C#N)c2oc(-c3cccc(-c4cccc(-c5nc6c(s5)CN(C(C)C)CC6)c4C)c3C)nc2c1 [Example 118, N-(2-(((7-cyano-2-(3′-(5-isopropyl-4,5,6,7-tetrahydrothiazolo[5,4-c]pyridin-2-yl)-2,2′-dimethyl-[1,1′-biphenyl]-3-yl)benzo[d]oxazol-5-yl)methyl)amino)ethyl)acetamide] | ≤ 10 nM
21 | CC[C@@H](CO)NCc1cnc2c(Nc3cccc(-c4cccc(-c5nc6cc(CN7CC[C@@](C)(C(=O)O)C7)cc(C#N)c6o5)c4C)c3C)nccc2c1 [Example 194, (R)-1-((7-cyano-2-(3′-(3-(((S)-1-hydroxybutan-2-ylamino)methyl)-1,7-naphthyridin-8-ylamino)-2,2′-dimethylbiphenyl-3-yl)benzo[d]oxazol-5-yl)methyl)-3-methylpyrrolidine-3-carboxylic acid] | ≤ 10 nM
